According to ChEMBL document CHEMBL1141400, “Influence of conformation and intramolecular hydrogen bonding on the acyl glucuronidation and biliary excretion of acetylenic bis-dipyrrinones related to bilirubin” (J Med Chem, 2007):

Tested on: Rattus norvegicus
Assay: Hepatobiliary metabolism in UGT1A1-deficient Gunn rat measured as biliary excretion at 0.25 mg, iv within 240 mins
Format: ADME, organism-based, Bile
Details: in vivo, 4 h

With `CCC1=C(C)C(=O)N/C1=C\c1[nH]c(C#Cc2[nH]c(/C=C3/NC(=O)C(C)=C3CC)c(C)c2CCC(=O)O)c(CCC(=O)O)c1C` the Activity was 93%.
